pEC50: −log10 of the molar value.

The target of test [1] is T1, Histamine H1 (Homo sapiens, UniProt P35367).
T1 construct: Eurofins Panlabs, Inc
Kind of test: Radioligand binding, Histamine H1.

In test [2] the target is T2, Adenosine A1 (Homo sapiens, UniProt P30542).
T2 construct: Eurofins Panlabs, Inc. (contract assay) 200510 (assay number)
Put plainly: Radioligand binding, Adenosine A1.

Test [3] concerns the target T3, Opiate δ1 (OP1, DOP) (Homo sapiens, UniProt P41143).
T3 construct: Eurofins Panlabs, Inc
Kind of test: Radioligand binding, Opiate δ1 (OP1, DOP).

In test [4] the target is T4, Adrenergic β2 (Homo sapiens, UniProt P07550).
T4 construct: Eurofins Panlabs, Inc. (contract assay)
Put plainly: Radioligand binding, Adrenergic β2.

Test [5] has as its target T5, Dopamine D2S (Homo sapiens, UniProt P14416).
T5 construct: Eurofins Panlabs, Inc. (contract assay)
Put plainly: Radioligand binding, Dopamine D2S.

The target in test [6] is T6, Endothelin ETA (Homo sapiens, UniProt P25101).
T6 construct: Eurofins Panlabs, Inc. (contract assay)
Kind of test: Radioligand binding, Endothelin ETA.

Test [7] concerns the target T7, Bradykinin B2 (Homo sapiens, UniProt P30411).
T7 construct: Eurofins Panlabs, Inc. (contract assay)
Put plainly: Radioligand binding, Bradykinin B2.

For test [8], the target named is T8, Opiate μ (OP3, MOP) (Homo sapiens, UniProt P35372).
T8 construct: Eurofins Panlabs, Inc
Kind of test: Radioligand binding, Opiate μ (OP3, MOP).

Test [9] concerns MALME-3M cells. Put plainly: MALME-3M cell cytotoxicity assay (CellTiter-Glo). The conditions noted are these: Homo sapiens, Malme-3M, read-out: Target Potency IC50 (μM) MALME-3M; 24 hours, CellTiter-Glo. The format is cell-based, human. As to the method:
MALME-3M cells were treated with compounds for 24 hours, and then cell viability was measured using the CellTiter-Glo Assay (Promega), a luciferase-based reagent that measures cellular ATP levels. The compounds were tested at different concentrations to determine IC50 values. Compounds that were active in the primary assay and toxic below 30 μM at 24 hours were considered for probe development. Data were normalized against DMSO in Genedata Screener's Assay Analyzer.
MALME-3M cells were maintained in IMDM (20% FBS, 1% Pen-Strep-Glutamine). Cells were fluid changed every 3 days and/or split upon reaching 100% confluency. For secondary assays, cells were thawed at 6 million cells per Falcon T175 flask. After 3 days, cells were fluid changed, after 3 more days cells were passed to a Corning Triple flask (15-18 million cells) and plated after 3 days in the triple flask.
Day 1 • 1. Plate MALME-3M cells at 3,000 per well in 30 uL media (phenol red free IMDM/10% Fetal Bovine Serum/Penicillin/Streptomycin/L-Glutamine) • 2. Use Corning white 384-well, square, opaque-bottomed plates (Corning Catalog No. 8867BC)
Day 2 • 3. Pin 100 nL compound/DMSO solution (Cybi Well) into assay plates, including the positive control. • 4. Incubate 24 hours at 37° C. in Liconic incubator.
Day 3 • 5. […] Read on the Perkin-Elmer EnVision plate reader with luminescence (LUM) settings for 0.1 sec per well. […]
(ATP-based viability assays read luminescence as a measure of living cells.)

Test [10] concerns CDK2. Put plainly: qPCR assay for CDK2 expression in SK-MEL-5 cells. Format: cell-based, human. The settings on record: Homo sapiens; SK-MEL-5 melanoma cells, up to 35 μM. As to the method: SK-MEL-5 cells were treated with compounds for 24 hours. Next, cells were lysed with DNase I (Ambion, from Cell to CT Lysis Mix). Lysed cells were delivered to a RT-PCR plate (Ambion, Cells to CT RT Mix) and the plates were then processed for reverse transcription to create cDNA. qPCR was performed by transferring cDNA from the RT-PCR plate to a qPCR plate containing PCR master mix (Roche, Probes Master), FAM Taqman probe/primer set for the target gene (human MITF, Applied Biosystem, 4331182 Hs01117294_m1), VIC Taqman probe/primer set for a house keeping gene (human GAPDH, Applied Biosystems C10228) and water. qPCR plates were cycled using a real-time PCR instrument (Roche, Light Cycler). Using the instrument software, a cycle call was generated when each well enters log phase amplification (Ct). The delta Ct value was determined by subtracting the Ct value of the control gene (GAPDH) from the Ct value of the target gene (MITF) in each well. The delta delta Ct value of each compound treatment was determined by averaging the delta Ct values of the mock well on each plate and subtracting that average from the delta Ct value of each compound well. […]
• 10. […] The RT assay plates are incubated at 37° C. for 1 hour and the reverse transcriptase is inactivated by incubating the plates for 1 minute at 95° C. • 13. cDNA is stored at −80° C. until ready for qPCR analysis […]

T2 sequence (P30542 whole entry): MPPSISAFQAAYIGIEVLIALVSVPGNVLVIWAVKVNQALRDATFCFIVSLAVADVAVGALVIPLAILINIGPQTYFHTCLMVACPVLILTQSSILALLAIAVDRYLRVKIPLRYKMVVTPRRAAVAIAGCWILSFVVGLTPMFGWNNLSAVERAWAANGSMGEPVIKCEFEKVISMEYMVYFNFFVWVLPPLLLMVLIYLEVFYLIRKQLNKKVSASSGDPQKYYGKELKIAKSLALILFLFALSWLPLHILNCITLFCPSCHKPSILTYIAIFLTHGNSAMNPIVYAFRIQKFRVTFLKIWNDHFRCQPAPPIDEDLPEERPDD
T7 sequence (P30411 whole entry): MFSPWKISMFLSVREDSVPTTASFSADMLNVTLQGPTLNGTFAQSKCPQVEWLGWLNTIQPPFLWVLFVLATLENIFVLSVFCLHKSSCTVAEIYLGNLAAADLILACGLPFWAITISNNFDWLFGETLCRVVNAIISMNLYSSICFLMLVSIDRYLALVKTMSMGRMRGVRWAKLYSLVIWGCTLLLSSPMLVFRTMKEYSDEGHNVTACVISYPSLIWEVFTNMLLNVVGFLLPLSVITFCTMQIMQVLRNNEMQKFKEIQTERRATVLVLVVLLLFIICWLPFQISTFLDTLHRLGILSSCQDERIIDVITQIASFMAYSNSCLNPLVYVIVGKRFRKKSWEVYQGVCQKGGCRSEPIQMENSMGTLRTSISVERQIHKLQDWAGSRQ
T6 sequence (P25101 21-427): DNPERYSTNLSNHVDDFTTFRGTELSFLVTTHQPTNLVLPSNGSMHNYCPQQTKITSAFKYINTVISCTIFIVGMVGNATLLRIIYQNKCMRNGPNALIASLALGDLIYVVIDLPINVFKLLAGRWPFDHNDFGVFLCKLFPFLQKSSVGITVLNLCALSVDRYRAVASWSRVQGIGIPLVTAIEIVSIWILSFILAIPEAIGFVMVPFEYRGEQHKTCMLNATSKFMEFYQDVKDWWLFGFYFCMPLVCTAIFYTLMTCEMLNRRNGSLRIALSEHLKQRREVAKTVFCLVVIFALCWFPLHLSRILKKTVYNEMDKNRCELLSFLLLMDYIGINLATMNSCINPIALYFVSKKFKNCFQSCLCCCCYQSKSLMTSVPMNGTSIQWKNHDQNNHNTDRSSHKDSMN
T4 sequence (P07550 whole entry): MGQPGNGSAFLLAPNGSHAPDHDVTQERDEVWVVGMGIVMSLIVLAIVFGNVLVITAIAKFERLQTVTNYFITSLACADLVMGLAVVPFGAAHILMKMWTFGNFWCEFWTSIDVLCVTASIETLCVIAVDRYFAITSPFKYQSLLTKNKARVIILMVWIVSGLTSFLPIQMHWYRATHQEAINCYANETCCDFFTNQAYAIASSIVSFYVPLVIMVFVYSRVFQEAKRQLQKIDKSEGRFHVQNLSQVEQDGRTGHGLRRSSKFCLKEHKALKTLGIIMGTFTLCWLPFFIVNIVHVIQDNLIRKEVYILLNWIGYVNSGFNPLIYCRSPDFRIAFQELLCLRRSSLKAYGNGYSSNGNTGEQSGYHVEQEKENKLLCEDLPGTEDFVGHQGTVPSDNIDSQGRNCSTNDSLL
T3 sequence (P41143 whole entry): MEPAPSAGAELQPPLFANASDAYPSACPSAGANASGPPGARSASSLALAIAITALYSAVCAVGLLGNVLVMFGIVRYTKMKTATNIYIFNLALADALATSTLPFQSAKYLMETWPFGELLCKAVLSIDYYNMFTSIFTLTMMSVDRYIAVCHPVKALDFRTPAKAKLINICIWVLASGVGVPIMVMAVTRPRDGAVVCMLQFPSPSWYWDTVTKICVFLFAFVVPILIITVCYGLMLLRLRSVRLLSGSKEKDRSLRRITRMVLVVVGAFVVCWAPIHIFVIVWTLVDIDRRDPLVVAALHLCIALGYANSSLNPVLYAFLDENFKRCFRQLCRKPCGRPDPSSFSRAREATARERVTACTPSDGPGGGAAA
T8 sequence (P35372 whole entry): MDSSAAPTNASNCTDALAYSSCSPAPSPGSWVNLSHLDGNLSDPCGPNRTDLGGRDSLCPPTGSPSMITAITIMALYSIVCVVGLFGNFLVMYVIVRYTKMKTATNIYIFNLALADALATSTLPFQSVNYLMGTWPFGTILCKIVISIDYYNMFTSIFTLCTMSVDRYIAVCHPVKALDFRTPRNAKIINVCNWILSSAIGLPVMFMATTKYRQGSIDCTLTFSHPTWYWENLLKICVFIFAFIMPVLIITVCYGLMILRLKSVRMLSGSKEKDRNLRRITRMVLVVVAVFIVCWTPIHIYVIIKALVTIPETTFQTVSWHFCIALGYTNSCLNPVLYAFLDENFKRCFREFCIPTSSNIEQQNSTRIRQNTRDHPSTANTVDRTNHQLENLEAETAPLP
T5 sequence (P14416 1-414 isoform P14416-2): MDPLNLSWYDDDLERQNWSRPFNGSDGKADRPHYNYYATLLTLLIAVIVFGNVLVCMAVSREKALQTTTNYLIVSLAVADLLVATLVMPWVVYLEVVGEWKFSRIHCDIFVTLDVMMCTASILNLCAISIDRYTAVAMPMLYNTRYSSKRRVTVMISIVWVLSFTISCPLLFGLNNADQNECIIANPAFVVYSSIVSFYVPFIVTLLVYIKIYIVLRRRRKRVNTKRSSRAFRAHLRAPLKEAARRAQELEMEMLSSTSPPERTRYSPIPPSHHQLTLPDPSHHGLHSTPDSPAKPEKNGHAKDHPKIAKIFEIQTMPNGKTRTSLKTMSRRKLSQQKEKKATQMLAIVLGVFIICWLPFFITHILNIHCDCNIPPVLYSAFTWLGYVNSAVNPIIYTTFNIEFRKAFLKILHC
T1 sequence (P35367 whole entry): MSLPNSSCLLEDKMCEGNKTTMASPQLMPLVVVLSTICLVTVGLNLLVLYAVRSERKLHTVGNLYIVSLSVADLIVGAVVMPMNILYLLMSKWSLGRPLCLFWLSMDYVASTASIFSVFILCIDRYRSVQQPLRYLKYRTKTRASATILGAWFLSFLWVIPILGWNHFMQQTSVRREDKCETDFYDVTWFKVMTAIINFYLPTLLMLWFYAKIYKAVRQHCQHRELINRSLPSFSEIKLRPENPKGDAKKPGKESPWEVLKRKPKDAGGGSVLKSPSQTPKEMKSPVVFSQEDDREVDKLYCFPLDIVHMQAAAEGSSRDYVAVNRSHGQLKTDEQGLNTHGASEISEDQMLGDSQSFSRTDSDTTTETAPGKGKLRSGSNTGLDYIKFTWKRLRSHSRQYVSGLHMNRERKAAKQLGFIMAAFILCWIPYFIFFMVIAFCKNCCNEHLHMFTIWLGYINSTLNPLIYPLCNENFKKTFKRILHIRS

As to `NS(=O)(=O)c1ccc(NC2=CC(=O)c3ccccc3C2=O)cc1` [Example 1, 4-((1,4-Dioxo-1,4-dihydronaphthalen-2-yl)amino)benzenesulfonamide], the inhibition – broadly, the relative decrease from the control value, in per cent – at 10 µM in test [1] is -5%; in [2], 46%; in test [3] it was -6%; in [4], 10%; in test [5] it was 0%; in test [6], 17%. Besides, the inhibition at 10 µM in [7] amounted to 11%; in [8], 1%.
In the case of `NS(=O)(=O)c1ccc(NC2=CC(=O)c3ccccc3C2=O)cc1` [4-((1,4-dioxo-1,4-dihydronaphthalen-2-yl)amino)benzenesulfonamide], the 50% inhibitory concentration (IC50) (as a rule, the midpoint of a concentration-inhibition curve) in [9] was determined as 0.88 µM. Moreover, the negative logarithm of the EC50 (pEC50) (commonly −log10 of the EC50, conventionally taken in molar units) in test [10] was 6.30.
